For assay [1], the system named is PgUGT94B1. The experiment in a line: Quantitative RT-PCR of PgUGT94B1 expression in ginseng leaves sprayed with MeJA. It is filed as in vivo, Panax ginseng. The note with it: 200 μM MeJA sprayed on leaves of 15-month-old ginseng everyday for 5 days, samples on 6th day; normalized to tubulin. On the procedure:
(§1) Total RNA was isolated from the leaf or root of 15-month-old ginseng using a spectrum plant total RNA kit (Sigma-Aldrich). 200 μM methyl jasmonate (MeJA) was sprayed onto the leaves of ginseng everyday for a total of 5 days, and samples were collected on the 6th day. The 1 μg of total RNA was used for cDNA synthesis.
(§2) Expression levels of different genes were examined by a quantitative RT-PCR using the primer sets listed in the following Table 2, and the results were normalized to the expression level of tubulin.
(§3) The 15-month old ginseng grown in a growth chamber under LD conditions was collected, and MeJA was sprayed onto its leaves everyday for a total of 5 days. To analyze expression level of the ginsenoside biosynthetic genes, samples were collected on the 6th days. […] However, expression of PgPPTS was not induced by MeJA under the conditions of the present invention.

Assay [2] has as its system PgPPDS (protopanaxadiol synthase). The experiment in a line: Quantitative RT-PCR of PgPPDS expression in ginseng leaves sprayed with MeJA. It is filed as in vivo, Panax ginseng. The note with it: 200 μM MeJA sprayed on leaves of 15-month-old ginseng everyday for 5 days, samples on 6th day; normalized to tubulin. On the procedure:
as §1, §2, §3

Assay [3] deals with PgUGT74A1. The experiment in a line: Quantitative RT-PCR of PgUGT74A1 expression in ginseng leaves sprayed with MeJA. The note with it: 200 μM MeJA sprayed on leaves of 15-month-old ginseng everyday for 5 days, samples on 6th day; normalized to tubulin. The format is in vivo, Panax ginseng. On the procedure:
as §1, §2, §3

The test system of another assay is ginseng. The experiment in a line: Concentrations of 4 major ginsenosides after spraying MeJA onto the leaf of ginseng. It is filed as in vivo, Panax ginseng. The note with it: MeJA sprayed onto the leaf of ginseng; versus untreated. On the procedure: as §1
In this regard, the concentrations of 4 major ginsenosides were measured after spraying MeJA onto the leaf of ginseng. The treatment of MeJA increased the concentrations of two PPD-type ginsenosides, Rd and Rb1, by 1.55 and 1.14 times respectively (FIG. 6c). In addition, the treatment of MeJA increased the concentrations of two PPT-type ginsenosides, Rg1 and Re, by 2.61 and 1.45 times respectively.

The test system of assay [4] is PgDS (dammarenediol-II synthase). The experiment in a line: Quantitative RT-PCR of PgDS expression in ginseng leaves sprayed with MeJA. The format is in vivo, Panax ginseng. The note with it: 200 μM MeJA sprayed on leaves of 15-month-old ginseng everyday for 5 days, samples on 6th day; normalized to tubulin. On the procedure: as §1, §2, §3
For assay [5], the system named is PgPPTS (protopanaxatriol synthase). Kind of assay: Quantitative RT-PCR of PgPPTS expression in ginseng leaves sprayed with MeJA. The format is in vivo, Panax ginseng. The note with it: 200 μM MeJA sprayed on leaves of 15-month-old ginseng everyday for 5 days, samples on 6th day; normalized to tubulin. On the procedure:
as §1, §2, §3

For assay [6], the system named is PgUGT94B1. Kind of assay: In vitro glycosyltransferase assay with purified recombinant PgUGT94B1. It is filed as biochemical, Panax ginseng. The note with it: ginsenoside 5 mM, UDP-glucose 50 mM, enzyme 30 μg, pH 7, 35° C., 12 hours. On the procedure:
(§4) A glycosyltransferase assay was performed in a reaction buffer (10 mM PBS buffer, pH 7) containing the purified PgUGT74A1 or PgUGT94B1 (30 μg), a ginsenoside compound (5 mM) and UDP-glucose (50 mM). For this assay, 10 different types of ginsenosides including PPD (Protopanaxadiol), PPT (Protopanaxatriol), Compound K (C-K), ginsenoside Rg3, Rh2, F2, Rd, Rg2, Rh1 and F1 were used, and the structures of the ginsenosides are shown in FIG. 1.
(§5) The reaction mixture was incubated at 35° C. for 12 hours, and then the products were analyzed by thin-layer chromatography (TLC) or high performance liquid chromatography (HPLC).
(§6) TLC analysis was performed using a mobile phase (acetone:methanol:DDW=65:35:10 vol/vol) and a 60F254 silica gel plate (Merck, Germany). The resolved product on the TLC plate was detected by spraying the plate with 10% (vol/vol) sulfuric acid (H2SO4) and heating it at 110° C. for 5 minutes.
(§7) HPLC analysis was performed using ODS (2) C18 column (Phenomenex, USA). Water and acetonitrile gradient application time; and a component ratio are as follows: at a flow rate of 1 ml per minute for 0 minute, 68% water and 32% acetonitrile; 8 minutes, 35% water and 65% acetonitrile; 12 minutes, 0% water and 100% acetonitrile; 20 minutes, 0% water and 100% acetonitrile; 20.1 minutes, 68% water and 32% acetonitrile; and 28 minutes, 68% water and 32% acetonitrile.
(§8) Ginsenosides were detected by using a UV-detector (Younglin, Korea) at a wavelength of 203 nm.
First, the recombinant PgUGT of Example 1, PgUGT94B1, was incubated with 10 different types of ginsenosides (PPD, C-K, Rh2, F2, Rg3, Rd, Rg2, Rh1, F1 and PPT) in the presence of UDP-glucose, and then the products converted by the recombinant PgUGT were analyzed by TLC.

Assay [7] deals with PgUGT74A1. Kind of assay: In vitro glycosyltransferase assay with purified recombinant PgUGT74A1. The note with it: ginsenoside 5 mM, UDP-glucose 50 mM, enzyme 30 μg, pH 7, 35° C., 12 hours. The format is biochemical, Panax ginseng. On the procedure: as §4, §5, §6, §7, §8
First, the recombinant PgUGT of Example 1, PgUGT74A1, was incubated with 10 different types of ginsenosides (PPD, C-K, Rh2, F2, Rg3, Rd, Rg2, Rh1, F1 and PPT) in the presence of UDP-glucose, and the products converted by the recombinant PgUGT were analyzed by TLC.

The test system of another assay is PgUGT74A1 and PgUGT94B1. The experiment in a line: In vitro glycosyltransferase assay with both PgUGT74A1 and PgUGT94B1 in a single reaction tube. It is filed as biochemical, Panax ginseng. The note with it: both enzymes in a single reaction tube, in the presence of UDP-Glc. On the procedure: PPD (upper panel) or C-K (lower panel) was incubated with both of PgUGT74A1 and PgUGT94B1 in the presence of UDP-Glc. Then the reaction mixture was analyzed by HPLC. […] Rg3 and Rd converted by the above two enzymes are marked as black triangles;
as §4, §5
HPLC analysis was performed using ODS (2) C18 column (Phenomenex, USA). […]
Ginsenosides were detected by using a UV-detector (Younglin, Korea) at a wavelength of 203 nm. […]

The record followed here is patent publication US20150240220A1, “NOVEL UDP-GLYCOSYLTRANSFERASE DERIVED FROM GINSENG AND USE THEREOF” (KOREA ADVANCED INSTITUTE OF SCIENCE AND TECHNOLOGY, priority 2012, published 2015).

For the molecule `CC/C=C\C[C@H]1C(=O)CC[C@@H]1CC(=O)OC` [MeJA, Methyl(1R,2R)-3-Oxo-2-(2Z)-2-pentenyl-cyclopentaneacetate], the “expression level of PgUGT94B1 after MeJA treatment” value with PgUGT94B1 [1] is recorded as “higher expression level”. Moreover, the “expression of PgPPDS after MeJA treatment” value in [2] is on record as “enhanced the expression”. Also, the “expression level of PgUGT74A1 after MeJA treatment” value in the assay on PgUGT74A1 [3] is given as “higher expression level”. Moreover, in the assay with ginseng, the “increase of the concentration of PPD-type ginsenoside Rb1 by MeJA treatment” value stood at 1.14 times, the “increase of the concentration of PPD-type ginsenoside Rd by MeJA treatment” value is on record as 1.55 times, the “increase of the concentration of PPT-type ginsenoside Re by MeJA treatment” value stood at 1.45 times and the “increase of the concentration of PPT-type ginsenoside Rg1 by MeJA treatment” value came to 2.61 times. Also, the “expression of PgDS after MeJA treatment” value in assay [4] is recorded as “enhanced the expression”. In addition, the “expression of PgPPTS after MeJA treatment” value in assay [5] is listed as “not induced”.
Take `CC(C)=CCCC(C)(O)[C@H]1CC[C@]2(C)[C@@H]1[C@H](O)C[C@@H]1[C@@]3(C)CC[C@H](O)C(C)(C)[C@@H]3CC[C@]12C` (stereo in doubt) [PPD, Protopanaxadiol]: the “conversion of the ginsenoside by PgUGT94B1 (HPLC analysis)” value in the assay on PgUGT94B1 [6] is “did not convert PPD and C-K into other ginsenosides”. Also, in the assay on PgUGT74A1 [7], the “conversion of the ginsenoside by PgUGT74A1 (HPLC analysis)” value is “converted PPD and C-K into ginsenoside Rh2 and F2 respectively”; the “conversion of the ginsenoside by PgUGT74A1 (TLC analysis)” value is “converted PPD and C-K into ginsenoside Rh2 and ginsenoside F2 respectively”. Further, the “conversion of the ginsenoside by PgUGT74A1 and PgUGT94B1 together (HPLC analysis)” value with PgUGT74A1 and PgUGT94B1 is “successfully converted into Rg3”.
In the case of `CC(C)=CCC[C@](C)(O[C@@H]1O[C@H](CO)[C@@H](O)[C@H](O)[C@H]1O)[C@H]1CC[C@]2(C)[C@@H]1[C@H](O)C[C@@H]1[C@@]3(C)CC[C@H](O[C@@H]4O[C@H](CO)[C@@H](O)[C@H](O)[C@H]4O)C(C)(C)[C@@H]3CC[C@]12C` [ginsenoside F2], in the assay on PgUGT94B1 [6], the “conversion of the ginsenoside by PgUGT94B1 (HPLC analysis)” value is “converted ginsenoside Rh2 and F2 into ginsenoside Rg3 and Rd respectively”; the “conversion of the ginsenoside by PgUGT94B1 (TLC analysis)” value was “converted ginsenoside Rh2 and ginsenoside F2 into ginsenoside Rg3 and ginsenoside Rd respectively”. For the same molecule, the “conversion of the ginsenoside by PgUGT74A1 (HPLC analysis)” value with PgUGT74A1 [7] was “did not convert ginsenoside Rh2 and F2”.
On to `CC(C)=CCC[C@](C)(O[C@@H]1O[C@H](CO)[C@@H](O)[C@H](O)[C@H]1O)[C@H]1CC[C@]2(C)[C@@H]1[C@H](O)C[C@@H]1[C@@]3(C)CC[C@H](O)C(C)(C)[C@@H]3CC[C@]12C` [C-K, Compound K], for which the “conversion of the ginsenoside by PgUGT94B1 (HPLC analysis)” value in the assay on PgUGT94B1 [6] is “did not convert PPD and C-K into other ginsenosides”. In the assay on PgUGT74A1 [7], the “conversion of the ginsenoside by PgUGT74A1 (HPLC analysis)” value is “converted PPD and C-K into ginsenoside Rh2 and F2 respectively”; the “conversion of the ginsenoside by PgUGT74A1 (TLC analysis)” value is “converted PPD and C-K into ginsenoside Rh2 and ginsenoside F2 respectively”. Moreover, the “conversion of the ginsenoside by PgUGT74A1 and PgUGT94B1 together (HPLC analysis)” value in the assay with PgUGT74A1 and PgUGT94B1 is recorded as “successfully converted into Rd”.
As for `CC(C)=CCC[C@](C)(O)[C@H]1CC[C@]2(C)[C@@H]1[C@H](O)C[C@@H]1[C@@]3(C)CC[C@H](O[C@@H]4O[C@H](CO)[C@@H](O)[C@H](O)[C@H]4O)C(C)(C)[C@@H]3CC[C@]12C` [ginsenoside Rh2], in the assay on PgUGT94B1 [6], the “conversion of the ginsenoside by PgUGT94B1 (HPLC analysis)” value was “converted ginsenoside Rh2 and F2 into ginsenoside Rg3 and Rd respectively”; the “conversion of the ginsenoside by PgUGT94B1 (TLC analysis)” value is “converted ginsenoside Rh2 and ginsenoside F2 into ginsenoside Rg3 and ginsenoside Rd respectively”. Further, the “conversion of the ginsenoside by PgUGT74A1 (HPLC analysis)” value in the assay with PgUGT74A1 [7] was “did not convert ginsenoside Rh2 and F2”.
